Numbered stars: 1 amine (or outer) side, 2 acyl side, 3 side chain; on linkers, the order of the positions; unused ones are H or OH. Bridge positions count the residues as written; N and C are the ends. Square brackets hold non-standard residues; d marks the D form. Ends that are not written are not given here. Peptide text beside a SMILES is read from it. dAbu(3S-yl) = C[C@@H]([C@@H](N[*:1])C(=O)[*:2])[*:3]; pGlu = O=C1CC[C@@H](C(=O)O)N1
Experiments:
Assay type in all cases: cell-based
[1] = target: T1, GAL2R (Homo sapiens, UniProt O43603); test: Fluo-4 Direct calcium assay (Ca efflux) in HEK293 cells overexpressing GAL2R; settings: Table 3; HEK293 cells stably overexpressing GAL2R; Fluo-4, from 10 µM; (average) ratio, (n) in cell = number of assays; NA = ratio above 1000
T1 sequence (O43603 1-387): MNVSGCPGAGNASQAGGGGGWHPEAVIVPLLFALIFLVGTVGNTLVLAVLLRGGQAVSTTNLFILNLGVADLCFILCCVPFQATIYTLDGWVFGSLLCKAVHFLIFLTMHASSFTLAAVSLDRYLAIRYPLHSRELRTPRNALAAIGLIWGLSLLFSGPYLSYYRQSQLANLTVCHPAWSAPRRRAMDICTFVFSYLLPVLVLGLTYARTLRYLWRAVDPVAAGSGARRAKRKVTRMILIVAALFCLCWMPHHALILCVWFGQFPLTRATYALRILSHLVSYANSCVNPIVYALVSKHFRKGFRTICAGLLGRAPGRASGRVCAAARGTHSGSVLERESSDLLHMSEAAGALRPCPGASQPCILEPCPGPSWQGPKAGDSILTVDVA
Protocol: Calcium efflux was measured by using a Fluo-4 Direct Calcium Assay purchased from Thermo Fisher Scientific. HEK293 cells with stable overexpression of GAL2R (HEKR2) (kindly provided by Harald Dargatz, Molecular, Cellular and Pharmacobiology Section, Institute of Pharmaceutical Biology, University of Bonn, 53,115 Bonn, Germany) were used for analysis of the lanthipeptides. HEKR2 cells were seeded in a 96-well plate and grown overnight in DMEM supplemented with 10% FBS, 1% penicillin–streptomycin, 100 µg/ml Normocin, and 500 µg/ml G418 at 37 °C, 5% CO2 in a humidified incubator.
The next day, when the cells were nearly confluent, an equal amount of 2 × Fluo-4 Direct™ calcium reagent loading solution, containing 5 mM probenecid, was added to the wells, and the plate was incubated for 1 h at 37 °C. A serial 3 × dilution of the agonist compound in water was made, and 10 µl of the serial dilutions was applied to the cells in duplicate. The starting concentration of agonist in the assay was 10 µM. After 1–2 h of incubation at room temperature, the fluorescence was measured with excitation at 485/20 nm and emission at 528/20 nm with a Synergy HT Biotek reader.

[2] = target: T2, GAL1R (Homo sapiens, UniProt P47211); test: PathHunter eXpress β-arrestin recruitment assay, GAL1R; design: expressed in transfected cells; settings: Table 3; CHO-K1 cells co-expressing GAL1R and β-arrestin 2; 10 µM to 5 nM; (average) ratio, (n) in cell = number of assays; NA = ratio above 1000
T2 sequence (P47211 1-349): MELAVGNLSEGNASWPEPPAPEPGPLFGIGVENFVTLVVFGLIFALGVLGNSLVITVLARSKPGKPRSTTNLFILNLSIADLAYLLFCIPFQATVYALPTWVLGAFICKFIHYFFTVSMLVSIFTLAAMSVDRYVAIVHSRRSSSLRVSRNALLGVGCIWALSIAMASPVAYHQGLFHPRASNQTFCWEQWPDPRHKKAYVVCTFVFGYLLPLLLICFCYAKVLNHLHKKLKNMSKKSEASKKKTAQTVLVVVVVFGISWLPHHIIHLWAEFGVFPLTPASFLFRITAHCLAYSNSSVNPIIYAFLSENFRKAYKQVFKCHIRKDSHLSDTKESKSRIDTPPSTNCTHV
Protocol: (§1) To evaluate the ability of lanthipeptides to recruit ß-arrestins via GAL1R or via GAL2R, we used the PathHunter® eXpress GAL1R, CHO-K1, β-arrestin GPCR Assay and the PathHunter® eXpress GAL2R, CHO-K1, β-arrestin, GPCR Assay from Eurofins-DiscoverX. The assays were performed according to the manufacturer’s instructions. Briefly, for one assay, CHO-K1 cells co-expressing GAL1R or GAL2R and β-arrestin (isoform 2) were diluted in AssayComplete™ Cell Plating Reagent, and 100 µl was seeded into each well of a 96-well plate. The plate was incubated at 37 °C, 5% CO2 in a humidified incubator. A serial 3 × dilution of the lanthipeptides in water was made (10 µM to 5 nM). After 48 h of incubation, 10 µl of the serial dilutions was applied to the cells in duplicate. The agonists were incubated for 90 min at 37 °C. Next, 55 µL of Working Detection Solution was added, and after 1 h of incubation at room temperature in the dark, the chemiluminescent signal was read with a Synergy HT Biotek reader.

[3] = target: T2, GAL1R; test: cAMP Hunter eXpress GAL1R CHO-K1 GPCR assay (inhibition of forskolin-induced cAMP); design: expressed in transfected cells; settings: Table 3; CHO-K1 cells expressing GAL1R; 20 µM forskolin; 10 µM to 5 nM; (average) ratio, (n) in cell = number of assays; NA = ratio above 1000
Protocol: To evaluate the ability of lanthipeptides to […] via GAL1R signaling, we used the cAMP Hunter™ eXpress GAL1R CHO-K1 GPCR Assay from Eurofins-DiscoverX. The assay was performed according to the manufacturer’s instructions. Briefly, for one assay, CHO-K1 cells expressing GAL1R were diluted in AssayComplete™ Cell Plating 2 Reagent, and 100 µl was seeded into each well of a 96-well plate. The plate was incubated at 37 °C, 5% CO2 in a humidified incubator. After 24 h of incubation, the media was aspirated, and 45 µl cell assay buffer/antibody mixture was added to all wells. […] Fifteen µl of the serial dilutions was applied in duplicates to the cells. The concentration of forskolin in the assay was 20 µM. The agonists were incubated for 30 min at 37 °C. Next, 15 µL Antibody Solution and 60 μL cAMP Working Detection Solution were added, and the plate was incubated for 1 h in the dark at room temperature. Finally, 60 μL cAMP Solution A was added and, after 3 h of incubation in the dark at room temperature, the chemiluminescent signal was read with a Synergy HT Biotek reader.

[4] = target: T1, GAL2R; test: PathHunter eXpress β-arrestin recruitment assay, GAL2R; design: expressed in transfected cells; settings: Table 3; CHO-K1 cells co-expressing GAL2R and β-arrestin 2; 10 µM to 5 nM; (average) ratio, (n) in cell = number of assays; NA = ratio above 1000
Protocol: as §1

| Compound | EC50 ratios to Gal-(1-15), GAL2R Ca-efflux [1] | EC50 ratios to Gal-(1-15), GAL1R ß-Arrestin [2] | EC50 ratios to Gal-(1-15), GAL1R cAMP [3] | EC50 ratios to Gal-(1-15), GAL2R ß-Arrestin [4] |
| --- | --- | --- | --- | --- |
| CC(C)C[C@H](NC(=O)[C@H](CC(C)C)NC(=O)[C@H](Cc1ccc(O)cc1)NC(=O)CNC(=O)[C@H](C)NC(=O)[C@H](C)NC(=O)[C@H](CC(N)=O)NC(=O)[C@H](CC(C)C)NC(=O)[C@H](CC(N)=O)NC(=O)[C@H](Cc1c[nH]c2ccccc12)NC(=O)[C@@H]1CCC(=O)N1)C(=O)NCC(=O)N[C@@H](C)C(=O)N[C@H]1C(=O)N[C@@H](C)C(=O)N[C@@H](C(C)C)C(=O)N[C@H](C(=O)N[C@@H](CC(N)=O)C(=O)N[C@@H](Cc2c[nH]cn2)C(=O)N[C@@H](CCCNC(=N)N)C(=O)O)CS[C@H]1C [Variant M54] ([pGlu]WNLNAAGYLLGA[dAbu(3S-yl)]AVCNHR-OH; thioether 14-17; C-terminus assumed) | 3.3 (3) | 4.5 (2) | 140 (2) | 1.2 (3) |
| GWNLNAAGYLLATHACG (also: sidechain bridge or staple (positions not given here)) [Variant M89, methyllanthionine-containing galanin variant produced in L. lactis] | 2.7 (1) | 148 (1) | NA (1) (NA is not active; ratios above 1000 were considered to be not active) | 3 (1) |
| GWNLNAAGYLLATHACGNHR (also: sidechain bridge or staple (positions not given here)) [Variant M50, methyllanthionine-containing galanin variant produced in L. lactis] | 3.5 (2) | 3.8 (1) | 12.5 (1) | 0.5 (1) |
| GWNLNAAGYLLGATAVCNHR (also: sidechain bridge or staple (positions not given here)) [Variant M51, methyllanthionine-containing galanin variant produced in L. lactis] | 2.9 (2) | 1.5 (2) | 3.6 (1) | 0.6 (2) |
| GWNLNAAGYLLGPHATGNCR (also: sidechain bridge or staple (positions not given here)) [Variant M74, methyllanthionine-containing galanin variant produced in L. lactis] | 4.7 (1) | 2.3 (1) | 4.6 (1) | 2.6 (1) |
| GWNLNAAGYLLGPHTVGCHR (also: sidechain bridge or staple (positions not given here)) [Variant M52, methyllanthionine-containing galanin variant produced in L. lactis] | 1.9 (1) | 8.3 (1) | 7.5 (2) | 0.6 (1) |
| GWNLNAAGYLLGTHACG (also: sidechain bridge or staple (positions not given here)) [Variant M84, methyllanthionine-containing galanin variant produced in L. lactis] | 6.3 (1) | 35 (1) | – | NA (1) (NA is not active; ratios above 1000 were considered to be not active) |
| GWNLNAATYLCGPHAVGNHR (also: sidechain bridge or staple (positions not given here)) [Variant M60, methyllanthionine-containing galanin variant produced in L. lactis] | 8.7 (1) | – | NA (2) (NA is not active; ratios above 1000 were considered to be not active) | NA (1) (NA is not active; ratios above 1000 were considered to be not active) |

Continued, values first:

| EC50 ratios to Gal-(1-15), GAL2R Ca-efflux [1] | EC50 ratios to Gal-(1-15), GAL1R ß-Arrestin [2] | EC50 ratios to Gal-(1-15), GAL1R cAMP [3] | EC50 ratios to Gal-(1-15), GAL2R ß-Arrestin [4] | Compound |
| --- | --- | --- | --- | --- |
| 2.6 (3) | 129 (1) | 13.3 (1) | 4.2 (1) | CC(C)C[C@H](NC(=O)[C@H](CC(C)C)NC(=O)[C@H](Cc1ccc(O)cc1)NC(=O)CNC(=O)[C@H](C)NC(=O)[C@H](C)NC(=O)[C@H](CC(N)=O)NC(=O)[C@H](CC(C)C)NC(=O)[C@H](CC(N)=O)NC(=O)[C@H](Cc1c[nH]c2ccccc12)NC(=O)[C@@H]1CCC(=O)N1)C(=O)NCC(=O)N1CCC[C@H]1C(=O)N[C@@H](Cc1c[nH]cn1)C(=O)N[C@@H](C)C(=O)N[C@H]1C(=O)NCC(=O)N[C@@H](CC(N)=O)C(=O)N[C@H](C(=O)N[C@@H](CCCNC(=N)N)C(=O)O)CS[C@H]1C [Variant M74b] ([pGlu]WNLNAAGYLLGPHA[dAbu(3S-yl)]GNCR-OH; thioether 16-19; C-terminus assumed) |
| 4.6 (1) | 2.7 (1) | 4.9 (1) | 3.2 (1) | GWNLNAAGYLLGATAVC (also: sidechain bridge or staple (positions not given here)) [Variant M90, methyllanthionine-containing galanin variant produced in L. lactis] |
| 0.9 (1) | 1.0 (1) | 0.6 (1) | 1.0 (1) | GWNLNAAGYLLGATAVGCHR (also: sidechain bridge or staple (positions not given here)) [Variant M76, methyllanthionine-containing galanin variant produced in L. lactis] |

Reference: PMC8804135 (Neurotherapeutics, 2021)
